Key:
MRSA COL (MB5393) [1] = test: TarO Inhibitor/β-Lactam Synergy Assay (growth, OD600); format: cell-based, Staphylococcus aureus; details: for MITC95 TarO inhibitor + 4 μg/mL IPM; Bacteria: SA_MB5393: in combination with 4 μg/mL imipenem (IPM); for MITC95 TarO inhibitor + 8 μg/mL DCX; Bacteria: SA_MB5393: in combination with 8 μg/mL dicloxacillin (DCX)
Description: The TarO inhibitor/β-lactam synergy assay was performed to measure the re-sensitization of methicillin-resistant Staphylococci bacteria (MB5393: MRSA COL) to β-lactam antibiotics by TarO inhibitors. MRSA COL is a hospital-acquired penicillinase-negative clinically isolated strain commonly used in Staphylococcus aureus studies and is fully resistant to the antimicrobial bioactivity of β-lactam antibiotics, including but not limited to imipenem and dicloxacillin. […] MRSA COL is fully refractory to β-lactam antibiotic effect at the current clinical breakpoint concentrations and as such MRSA COL is fully viable at these concentrations.
The β-lactam antibiotic concentration was fixed at the clinical breakpoint (imipenem 4 μg/ml or dicloxacillin 8 μg/ml) and the TarO inhibitors were titrated by 2 fold starting from the highest concentration of 200 μM with final DMSO concentration of 2% in the assay. 5×10^5 colony forming unit of MRSA COL in cation-adjusted Mueller Hinton broth (CAMHB) was then mixed and the assay plate was incubated for 20 hours at 37° C. without shaking. After 20 hours, the optical density at 600 nm (OD600) was read for all wells to determine relative growth of MRSA COL.

MRSA COL (MB5393) [2] = test: as above; format: cell-based; details: Staphylococcus aureus, TarO inhibitor alone, >200 μM = 95% growth inhibition not achieved, 20 hours at 37° C., read-out: MITC95 TarO inhibitor alone, Bacteria: SA_MB5393

| Compound | MITC95 TarO inhibitor + 4 μg/mL IPM; Bacteria: SA_MB5393 (MRSA COL (MB5393) [1]) | MITC95 TarO inhibitor + 8 μg/mL DCX; Bacteria: SA_MB5393 (MRSA COL (MB5393) [1]) | IC95 (MRSA COL (MB5393) [2]) |
| --- | --- | --- | --- |
| O=C(NCc1cccc2cncnc12)N1C(=O)O[C@H](c2cc(C(F)(F)F)cc(C(F)(F)F)c2)[C@@H]1CO [Example 54, (4S,5R)-5-[3,5-bis(trifluoromethyl)phenyl]-4-(hydroxymethyl)-2-oxo-N-(quinazolin-8-yl-methyl)-1,3-oxazolidine-3-carboxamide] | 0.20 µM | 0.65 µM | > 200 µM |
| O=C(NCc1cncc2cccnc12)N1C(=O)O[C@H](c2cc(C(F)(F)F)cc(C(F)(F)F)c2)[C@@H]1CO [Example 53, (4S,5R)-5-[3,5-bis(trifluoromethyl)phenyl]-4-(hydroxymethyl)-N-(1,6-naph-thyridin-8-yl-methyl)-2-oxo-1,3-oxazolidine-3-carboxamide] | 0.39 µM | 1.37 µM | > 200 µM |
| Cc1nc(C(C)C)sc1CNC(=O)N1C(=O)O[C@H](c2cc(F)cc(C(F)(F)F)c2)[C@@H]1C [Example 20, (4S,5R)-5-[3-fluoro-5-(trifluoromethyl)phenyl]-4-methyl-N-{[4-methyl-2-(1-methylethyl)-1,3-thiazol-5-yl]methyl}-2-oxo-1,3-oxazolidine-3-carboxamide] | 0.43 µM | 3.65 µM | > 200 µM |
| COc1cc(C(F)(F)F)cc([C@H]2OC(=O)N(C(=O)NCc3cncc4cccnc34)[C@H]2CO)n1 [Example 64, (4S,5S)-4-(hydroxymethyl)-5-[6-methoxy-4-(trifluoromethyl)pyridin-2-yl]-N-(1,6-naphthyridin-8-ylmethyl)-2-oxo-1,3-oxazolidine-3-carboxamide] | 0.94 µM | 4.38 µM | > 200 µM |
| C[C@H]1[C@@H](c2cc(F)c(F)c(F)c2)OC(=O)N1C(=O)CCc1cncc2ccccc12 [Example 78, (4S,5R)-3-(3-isoquinolin-4-ylpropanoyl)-4-methyl-5-(3,4,5-trifluorophenyl)-1,3-oxazolidin-2-one] | 1.17 µM | – | > 200 µM |
| COc1cccnc1CNC(=O)N1C(=O)O[C@H](c2cc(C(F)(F)F)cc(C(F)(F)F)c2)[C@@H]1C [Example 38, (4S,5R)-5-[3,5-bis(trifluoromethyl)phenyl]-N-[(3-methoxypyridin-2-yl)methyl]-4-methyl-2-oxo-1,3-oxazolidine-3-carboxamide] | 1.56 µM | 25 µM | > 200 µM |
| C[C@H]1[C@@H](c2cccc(C(C)(F)F)c2)OC(=O)N1C(=O)NCc1cncc2ccccc12 [Example 27, (4S,5R)-5-[3-(1,1-difluoroethyl)phenyl]-N-(isoquinolin-4-ylmethyl)-4-methyl-2-oxo-1,3-oxazolidine-3-carboxamide] | 0.39 µM | 3.65 µM | > 200 µM |
| C[C@H]1[C@@H](c2cc(F)cc(C(F)(F)F)c2)OC(=O)N1C(=O)NCc1ccnc2cccnc12 [Example 34, (4S,5R)-5-[3-fluoro-5-(trifluoromethyl)phenyl]-4-methyl-N-(1,5-naphthyridin-4-ylmethyl)-2-oxo-1,3-oxazolidine-3-carboxamide] | 1.95 µM | 14.06 µM | > 200 µM |
| C[C@H]1[C@@H](c2cc(C(F)(F)F)cc(C(F)(F)F)c2)OC(=O)N1C(=O)NCc1nccc2ccoc12 [Example 17, (4S,5R)-5-[3,5-bis(trifluoromethyl)phenyl]-N-(furo[2,3-c]pyridin-7-ylmethyl)-4-methyl-2-oxo-1,3-oxazolidine-3-carboxamide] | 0.39 µM | 4.30 µM | > 200 µM |
| COc1cccc([C@H]2OC(=O)N(C(=O)CCc3cccc4ccccc34)[C@H]2C)n1 [Example 81, (4S,5S)-5-(6-methoxypyridin-2-yl)-4-methyl-3-(3-naphthalen-1-ylpropanoyl)-1,3-oxazolidin-2-one] | 0.75 µM | 100.00 µM | > 200 µM |
| C[C@@H]1CN(C(=O)NCc2cncc3ccccc23)C(=O)OC1c1cc(C(F)(F)F)cc(C(F)(F)F)c1 (stereo in doubt) [Example 93, (5R,6S)-6-(3,5-bis(trifluoromethyl)phenyl)-N-(isoquinolin-4-ylmethyl)-5-methyl-2-oxo-1,3-oxazinane-3-carboxamide] | 0.13 µM | 0.50 µM | > 200 µM |
| C[C@H]1[C@@H](c2cc(F)cc(C(F)(F)F)c2)OC(=O)N1C(=O)N(O)Cc1cccc2ccccc12 [Example 46, (4S,5R)-5-[3-fluoro-5-(trifluoromethyl)phenyl]-N-hydroxy-4-methyl-N-(naphthalen-1-ylmethyl)-2-oxo-1,3-oxazolidine-3-carboxamide] | 6.25 µM | 50 µM | > 200 µM |
| Cc1nn(C)c(C)c1CNC(=O)N1C(=O)O[C@H](c2cc(F)cc(C(F)(F)F)c2)[C@@H]1C [Example 29, (4S,5R)-5-[3-fluoro-5-(trifluoromethyl)phenyl]-4-methyl-2-oxo-N-[(1,3,5-trimethyl-1H-pyrazol-4-yl)methyl]-1,3-oxazolidine-3-carboxamide] | 0.78 µM | 5.21 µM | > 200 µM |
| COc1cc([C@H]2OC(=O)N(C(=O)NCc3cncc4cccnc34)[C@H]2CO)cc(C(F)(F)F)c1 [Example 51, (4S,5R)-4-(hydroxymethyl)-5-[3-methoxy-5-(trifluoromethyl)phenyl]-N-(1,6-naphthyridin-8-yl-methyl)-2-oxo-1,3-oxazolidine-3-carboxamide] | 1.56 µM | 8.33 µM | > 200 µM |
| C[C@H]1[C@@H](c2cc(F)cc(C(F)(F)F)c2)OC(=O)N1C(=O)NCc1cccc2c1C(=O)NC2 [Example 40] | 18.75 µM | 50 µM | > 200 µM |
| Cc1cnc(F)c(CNC(=O)N2C(=O)O[C@H](c3cc(C(F)(F)F)cc(C(F)(F)F)c3)[C@@H]2C)c1 [Example 35, (4S,5R)-5-[3,5-bis(trifluoromethyl)phenyl]-N-[(2-fluoro-5-methylpyridin-3-yl)methyl]-4-methyl-2-oxo-1,3-oxazolidine-3-carboxamide] | 0.10 µM | 0.98 µM | > 200 µM |
| C[C@H]1[C@@H](c2cc(C(F)(F)F)cc(C(F)(F)F)c2)OC(=O)N1C(=O)CCc1cccc2ncccc12 [Example 73, (4S,5R)-5-[3,5-bis(trifluoromethyl)phenyl]-4-methyl-3-(3-quinolin-5-ylpropanoyl)-1,3-oxazolidin-2-one] | 0.56 µM | 6.25 µM | > 200 µM |

Source: patent publication US11141410B2 (MERCK SHARP & DOHME CORP., priority 2015, dated 2021)
